System: patients after acute myocardial infarction
Test: Life quality, Seattle Angina Questionnaire (SAQ), same clinical trial
Assay type: in vivo, human
Details: PP; 3 months after treatment
From the text: 3508 patients who were in accordance with the diagnostic standards of AMI for 28 days to 2 years and differentiated as Qi deficiency and blood stagnation syndrome by TCM were studied. 0.5 g Chinese medicine composition prepared by the method of EXAMPLE 1 (Coded as QSYQ) was administrated half an hour after meal, 3 times per day.
There were 19 questions in the Seattle angina questionnaire (SAQ), including 5 parts: physical limitation (PL), anginal stability (AS), anginal frequency (AF), treatment satisfaction (TS) and disease perception (DP). After being given necessary explanation by doctors, the questions were answered independently by patients.
They included the overall survival time, angina pectoris score, TCM symptom score and life quality score, where angina pectoris score, TCM symptom score and life quality score were evaluated at randomization, in 1st, 3rd, 6th, 9th, 12th month after treatment and 18th month after follow-up.
All evaluation results of SAQ were described during the period of observation, and Wilcoxon rank sum test was used for inter-group comparison.
The evaluation results in the SAQ were depicted in different observations, and inter-group comparison was tested by Wilcoxon Rank-sum test.

CC(=O)Oc1ccccc1C(=O)O [Control group, aspirine]
11th question: Often worried, patients (%): (19.03%) | 11th question: Seldom worried, patients (%): (30.12%) | SAQ 4th question, 1-2 times per week: % of patients: (17.09%) | SAQ 4th question, 1-2 times per week: number of patients: 251 | SAQ 4th question, 1-3 times per day: % of patients: (5.31%) | SAQ 4th question, 1-3 times per day: number of patients: 78 | SAQ 4th question, <1 time per week: % of patients: (10.35%) | SAQ 4th question, <1 time per week: number of patients: 152 | SAQ 4th question, Not used: % of patients: (56.71%) | SAQ 4th question, Not used: number of patients: 833 | SAQ 4th question, ≧3 times per week: % of patients: (10.55%) | SAQ 4th question, ≧3 times per week: number of patients: 155 | SAQ 4th question, ≧4 times per day: % of patients: (0.00%) | SAQ 4th question, ≧4 times per day: number of patients: 0 | SAQ 5th question, Few: % of patients: (24.57%) | SAQ 5th question, Few: number of patients: 361 | SAQ 5th question, Mild: % of patients: (26.14%) | SAQ 5th question, Mild: number of patients: 384 | SAQ 5th question, Moderate: % of patients: (16.13%) | SAQ 5th question, Moderate: number of patients: 237 | SAQ 5th question, None: % of patients: (27.16%) | SAQ 5th question, None: number of patients: 399 | SAQ 5th question, Not medicated by doctors: % of patients: (4.56%) | SAQ 5th question, Not medicated by doctors: number of patients: 67 | SAQ 5th question, Severe: % of patients: (1.43%) | SAQ 5th question, Severe: number of patients: 21 | SAQ 6th question, Dissatisfied: % of patients: (0.07%) | SAQ 6th question, Dissatisfied: number of patients: 1 | SAQ 6th question, Highly satisfied: % of patients: (20.04%) | SAQ 6th question, Highly satisfied: number of patients: 295 | SAQ 6th question, Mostly dissatisfied: % of patients: (2.51%) | SAQ 6th question, Mostly dissatisfied: number of patients: 37 | SAQ 6th question, Mostly satisfied: % of patients: (51.09%) | SAQ 6th question, Mostly satisfied: number of patients: 752 | SAQ 6th question, Partly satisfied: % of patients: (26.29%) | SAQ 6th question, Partly satisfied: number of patients: 387 | SAQ 7th question, Dissatisfied: % of patients: (0.07%) | SAQ 7th question, Dissatisfied: number of patients: 1 | SAQ 7th question, Highly satisfied: % of patients: (23.06%) | SAQ 7th question, Highly satisfied: number of patients: 339 | SAQ 7th question, Mostly dissatisfied: % of patients: (1.84%) | SAQ 7th question, Mostly dissatisfied: number of patients: 27 | SAQ 7th question, Mostly satisfied: % of patients: (53.47%) | SAQ 7th question, Mostly satisfied: number of patients: 786 | SAQ 7th question, Partly satisfied: % of patients: (21.56%) | SAQ 7th question, Partly satisfied: number of patients: 317 | SAQ Question 1-1 Mildly limited, number of patients: 22 | SAQ Question 1-1 Mildly limited, percent of patients: (1.50%) | SAQ Question 1-1 Moderately limited, number of patients: 6 | SAQ Question 1-1 Moderately limited, percent of patients: (0.41%) | SAQ Question 1-1 Not limited, number of patients: 1381 | SAQ Question 1-1 Not limited, percent of patients: (93.95%) | SAQ Question 1-1 Other reasons, number of patients: 3 | SAQ Question 1-1 Other reasons, percent of patients: (0.20%) | SAQ Question 1-1 Severely limited, number of patients: 0 | SAQ Question 1-1 Severely limited, percent of patients: (0.00%) | SAQ Question 1-1 Slightly limited, number of patients: 58 | SAQ Question 1-1 Slightly limited, percent of patients: (3.95%) | SAQ Question 1-2 Mildly limited, number of patients: 19 | SAQ Question 1-2 Mildly limited, percent of patients: (1.29%) | SAQ Question 1-2 Moderately limited, number of patients: 8 | SAQ Question 1-2 Moderately limited, percent of patients: (0.54%) | SAQ Question 1-2 Not limited, number of patients: 1353 | SAQ Question 1-2 Not limited, percent of patients: (92.04%) | SAQ Question 1-2 Other reasons, number of patients: 6 | SAQ Question 1-2 Other reasons, percent of patients: (0.41%) | SAQ Question 1-2 Severely limited, number of patients: 0 | SAQ Question 1-2 Severely limited, percent of patients: (0.00%) | SAQ Question 1-2 Slightly limited, number of patients: 84 | SAQ Question 1-2 Slightly limited, percent of patients: (5.71%) | SAQ Question 1-6: Mildly limited, patients (%): (17.92%) | SAQ Question 1-6: Moderately limited, patients (%): (13.89%) | SAQ Question 1-6: Not limited, patients (%): (30.92%) | SAQ Question 1-6: Other reasons, patients (%): (0.96%) | SAQ Question 1-6: Severely limited, patients (%): (3.83%) | SAQ Question 1-6: Slightly limited, patients (%): (32.49%) | SAQ Question 1-7: Mildly limited, patients (%): (23.81%)

— patent publication US9211310B2, “Use of a Chinese medicine composition in preparing medicaments for treating secondary prevention of myocardial infarction” (TASLY PHARMACEUTICAL GROUP CO., LTD, priority 2010, dated 2015)
